Data from patent US7893284B2 (Sterix Limited, priority 2004, dated 2011).

Tests used:
CA2 = CA2 (Homo sapiens, UniProt P00918); test: Carbonic Anhydrase CA2 inhibition; type: biochemical
steroid sulphatase = biological target: T1, steroid sulphatase (Homo sapiens, UniProt P08842); details: compared with EMATE; cited from earlier work
T1 sequence (P08842 22-583): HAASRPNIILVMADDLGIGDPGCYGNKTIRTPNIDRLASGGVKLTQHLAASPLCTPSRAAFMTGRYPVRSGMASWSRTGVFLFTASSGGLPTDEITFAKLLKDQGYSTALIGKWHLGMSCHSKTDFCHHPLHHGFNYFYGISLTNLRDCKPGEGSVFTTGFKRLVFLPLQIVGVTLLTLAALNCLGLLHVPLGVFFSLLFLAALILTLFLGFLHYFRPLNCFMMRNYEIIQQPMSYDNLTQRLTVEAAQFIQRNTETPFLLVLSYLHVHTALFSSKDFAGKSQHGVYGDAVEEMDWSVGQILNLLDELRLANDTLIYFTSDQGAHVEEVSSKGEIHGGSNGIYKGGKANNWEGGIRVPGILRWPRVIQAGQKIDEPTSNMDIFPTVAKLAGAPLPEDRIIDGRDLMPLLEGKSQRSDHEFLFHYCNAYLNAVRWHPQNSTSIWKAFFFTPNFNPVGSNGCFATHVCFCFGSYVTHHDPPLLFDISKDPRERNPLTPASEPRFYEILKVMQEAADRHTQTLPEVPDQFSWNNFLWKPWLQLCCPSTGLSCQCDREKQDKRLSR

[1] = cited from earlier work
E1-STS = biological target: T2, E1-STS (Homo sapiens, UniProt P08842); details: 0.1 nM; cited from earlier work
T2 construct: host or cells: intact MCF-7 cells (endogenous enzyme)
T2 sequence (P08842 22-583): T1 sequence (P08842 22-583)

rat liver E1-STS = biological target: T3, rat liver E1-STS (Rattus norvegicus, UniProt P15589); details: administered orally or subcutaneously; cited from earlier work
T3 construct: host or cells: rat liver (after oral or subcutaneous dosing)
T3 sequence (P15589 20-577): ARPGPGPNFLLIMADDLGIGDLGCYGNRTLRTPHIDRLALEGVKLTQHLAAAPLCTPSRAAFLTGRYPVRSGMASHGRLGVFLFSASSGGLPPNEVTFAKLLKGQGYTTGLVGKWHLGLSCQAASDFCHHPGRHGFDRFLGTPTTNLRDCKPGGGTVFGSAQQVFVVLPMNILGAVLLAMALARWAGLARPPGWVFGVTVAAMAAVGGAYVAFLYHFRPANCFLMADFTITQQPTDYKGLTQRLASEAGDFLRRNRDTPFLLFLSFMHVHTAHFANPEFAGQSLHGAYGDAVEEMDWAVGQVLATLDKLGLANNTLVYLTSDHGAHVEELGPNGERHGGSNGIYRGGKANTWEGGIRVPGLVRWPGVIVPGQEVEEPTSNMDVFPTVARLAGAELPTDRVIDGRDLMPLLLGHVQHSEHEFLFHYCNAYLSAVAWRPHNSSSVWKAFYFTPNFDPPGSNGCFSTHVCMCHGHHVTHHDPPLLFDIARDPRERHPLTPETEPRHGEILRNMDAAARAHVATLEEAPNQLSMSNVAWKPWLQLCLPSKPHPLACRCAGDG

DHA-STS = biological target: T4, DHA-STS (Rattus norvegicus, UniProt P15589); details: administered orally or subcutaneously; cited from earlier work
T4 construct: host or cells: rat liver (after oral or subcutaneous dosing)
T4 sequence (P15589 20-577): T3 sequence (P15589 20-577)

MDA MB 231 Cells = test: Inhibition of glucose uptake, MDA MB 231; type: cell-based; details: 15 min, 2-deoxy-D-[1-3H]glucose
Experimental: (§1) To measure the inhibition of glucose uptake into cells, cells were plated into 12-well multi-well plates and grown to confluence. Cells were washed with phosphate-buffered saline (PBS) and incubated for 15 min in incubation buffer containing 1 μCi 2-deoxy-D-[1-^3H]glucose (NEN-Dupont, UK) per well in the absence or presence of potential inhibitors (0.1-10 μM). Uptake was terminated by washing the cells in cold (4° C.) PBS. The cells were solubilized in. Triton-X in 0.01M sodium hydroxide and processed for liquid scintillation counting (Singh et al., Molecular and Cellular Endocrinology, 160: 61-66, 2000).

MCF-7 cells = test: Inhibition of glucose uptake, MCF-7; type: cell-based; details: 15 min, 2-deoxy-D-[1-3H]glucose
Experimental: as §1

COc1cc2c(cc1O)CC[C@@H]1[C@@H]2CC[C@]2(C)[C@@H](O)CC[C@@H]12 [2-Methoxyoestradiol]
CA2 IC50s (result in words) (CA2): no detectable inhibition

COc1cc2c(cc1OS(N)(=O)=O)CC[C@@H]1[C@@H]2CC[C@]2(C)C(=O)CC[C@@H]12 [2-methoxyoestrone-3-O-sulphamate]
potency as a steroid sulphatase inhibitor (steroid sulphatase): equipotent with EMATE | oestrogenicity ([1]; rat, in vivo): devoid of oestrogenicity

CC12CCC3c4ccc(OS(N)(=O)=O)cc4CCC3C1CCC2=O (stereo not drawn) [EMATE, oestrone-3-sulphamate]
inhibition of E1-STS activity in intact MCF-7 cells (E1-STS): more than 99% | inhibition of rat liver E1-STS (rat liver E1-STS): 99% | oral uterotrophic activity in rats, times higher than that of estradiol ([1]; oral, rats): 100 times | inhibition of rat liver DHA-STS (DHA-STS): 99%

COc1cc2c(cc1OS(N)(=O)=O)CCC1C2CC[C@@]2(C)C1CC[C@@H]2O (stereo partly drawn) [STX 68]
% Inhibition of Glucose Uptake MDA MB 231 Cells (MDA MB 231 Cells): 70% | % Inhibition of Glucose Uptake MCF-7 Cells (MCF-7 cells): 66%
